Test results as given in US9290740B2, “Use of basic fibroblast growth factor in the de-differentiation of animal connective tissue cells” (Worcester Polytechnic Institute, priority 2008, dated 2016).
“Also recorded” adds a separate entry of the source.

System: Msx-1, Msx-2, Sox-2, Oct-4 and Nanog in adult human fibroblasts (CRL-2352)
Test: Immunocytochemistry / western blot for stem cell transcription factors in FGF2-cultured fibroblasts
Assay type: cell-based
Protocol: Adult human fibroblasts (CRL-2352, ATCC) were cultured in conditions of 37° C., 5% CO2, 5% O2 90% N2 were seeded into 24 well plates (BD Falcon) either without substrate or with 15 mm Thermanox® coverslips (Nalge Nunc) at 5,000 cells per well in medium consisting of DMEM with 4 mM fresh L-glutamine: Ham's F12 medium (50:50) supplemented with 1×TCH serum replacement (Protide Pharmaceuticals), 1×ITS-X (Invritrogen), 2% FetalClone III (Hyclone), and 4 ng/ml FGF2 (Chemicon). After 5 days, the cells were washed with DPBS w/o Ca/Mg (Mediatech) and fixed in methanol (−20° C.) for 10 min, washed with DPBS and stored in DPBS at 4° C. until use. For detection of nuclear antigens (Msx-1, Msx-2, Sox-2, Oct-4 and Nanog), enhanced nuclear membrane permeabilization was performed by incubation with 1.5 N HCl for 20 min, followed by 3 washes (5 min) in PBS. For immuno-cytochemistry, cells were washed with PBS/Tween (PBS, MediaTech with 0.05% Tween-20, Biorad) and blocked for 30 min at RT with PBS containing 0.05% Tween, 5% FBS, and 1% BSA). Primary antibodies (1:200 dilution) were added in blocking solution for 30 min at RT. Cells were washed 4× in PBS/Tween and Alexafluor-568 labeled appropriate secondary antibody diluted 1:1000 in blocking solution added for 30 min. Cells were washed 4× in PBS/Tween and stored in PBS at 4 C until image analysis. Antibodies used were: Msx-1 (SantaCruz, sc-17726), Msx-2 (Santa Cruz, sc-17729), Sox-2 (Abeam, ab15830), Oct4 (Santa Cruz, sc-8630), Nanog (abeam ab21624) FGF receptor-1 (Abgent, AP7636a), FGF Receptor-2 (Abgent, AP7636a), FGF2 (N-terminus, Santa Cruz sc-1390), FGF2 (internal, Santa Cruz sc-79), fibroblast specific protein (FSP, Sigma). Coverslips were removed and mounted onto glass slides in 80% glycerol in PBS containing 0.1% Na-Azide and sealed with nail polish. Cells were visualized using at Olympus IX81 inverted microscope with epi-fluorescence using appropriate filters (Semrock, Inc.) and phase contrast. Images were collected using a 12 bit Hamamatzu CCD camera (Model C4742-80-12AG) and images processes using Slidebook®.
Fibroblasts were seeded into 24 well plates (BD Falcon) with 15 mm Thermanox® coverslips (Nunc) or #2 12 mm round glass coverslips (VWR) at 5,000 cells per well in medium consisting of DMEM with 4 mM fresh L-glutamine: Ham's F12 medium (60:40) supplemented with 1×TCH serum replacement (Protide Pharmaceuticals), 1×ITS-X (Invitrogen), 2% FetalClone III (Hyclone) and cultured at 37° C., 5% CO2, 5% O2 and 90% N2. For FGF2 treatments, FGF2 (4 ng/ml) was added to the medium at the time of seeding. After 7 days, the cells were washed with DPBS w/o Ca/Mg (Mediatech) and fixed in methanol (−20° C.) for 10 min, washed with DPBS and stored in DPBS at 4 C until use. Cells were washed with PBS/Tween (PBS, MediaTech with 0.05% Tween-20, Biorad) and blocked for 30 min at RT with PBS containing 0.05% Tween, 5% FBS, and 1% BSA). Primary antibodies (2.5 μg/ml) were added in blocking solution for 30 min at RT. Cells were washed 4× in PBS/Tween and Alexafluor-568 labeled appropriate secondary antibody (4 μg/ml) in blocking solution added for 30 min. Cells were washed 4× in PBS/Tween and stored in PBS at 4° C. until image analysis. Antibodies used were: Oct4 (Abcam ab19857), Sox2 (Abcam, ab15830), Nanog (Abcam, ab21624, FGFR-1 (Abgent, AP7636a), FGFR-2 (Abgent, AP7636a), FGFR3 (Abcam ab10651), FGFR4 (Abcam ab41948), FGF2 (Santa Cruz, sc-1390 and sc-79). Coverslips were removed and mounted onto glass slides in 80% glycerol in PBS containing 0.1% Na-Azide and sealed with nail polish. Cells were visualized using an Olympus IX81 inverted microscope with epi-fluorescence using appropriate filters (Semrock, Inc.) and phase contrast. Images were collected using a 12 bit Hamamatzu CCD camera and processed using Slidebook®. […]

FGF2: human recombinant FGF2 (Invitrogen, Chemicon or Protide), basic fibroblast growth factor
effect on Oct4, Sox2 and Nanog protein (FGF2 4 ng/ml, 5% O2, 7 days): translation and nuclear translocation | cells with stem-like nuclear localization of the transcription factors (FGF2, lowered oxygen, 7 days of culture): up to 30% | localization of Msx2, Sox2 and Oct4, Thermanox coverslips (Thermanox coverslips, 2% serum, low O2, FGF2): detected in the nucleus; also recorded: nuclear localization of all three transcription factors | FGF2 concentration at which Sox-2 is induced (culture for 2 days, preliminary dose response): 0.5 ng/mL | ICC for transcription factors Oct4, Sox2 and Msx1 (early transition of cultures grown in the presence of FGF2): positive | localization of induced Sox2 expression (preliminary dose response, before change to Thermanox coverslips): restricted to the cytoplasm | expression of Msx-2, Sox-2 and Oct-4, tissue culture plastic (tissue culture plastic, low O2, low serum, FGF2 4 ng/ml, 5 days): some cytoplasmic expression
